Data reported in patent publication US20250332112A1, “IONIZABLE CATIONIC LIPIDS FOR LIPID NANOPARTICLES” (GENEVANT SCIENCES GMBH, priority 2022, published 2025).

Key:
[1] = tested on: luciferase activity in the liver; assay: Luciferase activity in liver after intravenous luciferase mRNA LNP; assay type: in vivo; conditions: 0.5 mg/kg IV, 6 h post-IV administration, BALB/c mice (n = 4)
[2] = Particle characteristics of LNPs containing luciferase mRNA and novel ionizable lipids; assay type: physicochemical; conditions: Table 6; luciferase mRNA LNP 1.6:54.6:32.8:10.9
In short: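 LNPs made from PEG-lipid, ionizable lipid, cholesterol and phospholipid in ethanol, T-mixed with luciferase mRNA in 100 mM acetate pH 5. Products were dialysed, concentrated, and dialysed into 5 mM Tris, 10% sucrose, pH 8, then 0.2 μm filtered. mRNA was measured by RiboGreen, and size and polydispersity by dynamic light scattering on a Zetasizer.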

[3] = Parent ionizable lipid remaining in liver at 6 h after luciferase mRNA LNP (LC-MS); assay type: in vivo; conditions: 6 h after IV 0.5 mg/kg Luciferase mRNA LNP
[4] = Lipid clearance from liver over time after human OTC mRNA LNP (LC-MS); assay type: in vivo; conditions: IV 0.5 mg/kg human OTC mRNA LNP, male C57BL/6 mice (n = 4)
Description: (§1) LNP formulations encapsulating ornithine transcarbamylase mRNA were injected intravenously at the specified dose levels to male C57BL/6 mice (6-8 weeks old).
(§2) Liver tissues were treated with PBS and homogenized with a FastPrep machine, 3 cycles of 5 m/s×15 s. Homogenates from the PBS-treated control animals was pooled and used for standard curve preparation. Samples were extracted into a deep well plate with 250 μL of an internal suitability standard. Plates were centrifuged for 15 min at 4° C. and 2000 rpm. Analysis was performed using an Agilent 6520 QTOF coupled to an Agilent 1290 UHPLC, using reverse-phase LC separation. Quantitation of the ionizable lipid was by MS/MS against a calibration curve spiked into appropriately matched blank matrix. Calibration used a similar class of synthetic lipid as internal standard.
At various timepoints post-dose, lipid levels were assessed in the liver. Some novel ionizable lipids reported more rapid clearance rates compared to the benchmark (Table 19).

[5] = tested on: human OTC expression in the liver; assay: Dose response of human OTC mRNA LNP, OTC expression in liver (ELISA); assay type: in vivo; conditions: 24 h, male C57BL/6 mice (n = 4)
Description: as §1
Liver homogenates were prepared with PBS, Halt protease inhibitor cocktail and FastPrep homogenization, standardized to 2 mg/mL protein with a BCA Protein Assay, and then analyzed by ELISA. Briefly, samples were diluted with PBS and plated on Nunc Maxisorp plates. A standard curve using human […] protein was prepared from the naïve animal controls (vehicle). After 2 h incubation the plates were washed, and the primary antibody was added. After 1 h incubation, the secondary antibody was added and incubated for another hour. After washing, TMB Substrate was added for color development and the reaction was stopped with 2 N sulfuric acid. The plate was read at 450/570 OD.
At 24 h post-dose, the novel lipid formulations reported dose-dependent increases in human OTC expression in the liver (Table 15).

[6] = Parent ionizable lipid remaining in liver at 24 h after EGFP mRNA LNP (LC-MS); assay type: in vivo; conditions: Table 31; 24 h after IV 0.5 mg/kg EGFP mRNA LNP, female BALB/c mice (n = 4)
Description: as §2
At 24 h post-dose, some treatment groups reported lower levels of novel ionizable lipid in mouse liver compared to the benchmark (Tables 28-31).

[7] = Particle characteristics of LNPs containing EGFP mRNA and novel ionizable lipids; assay type: physicochemical; conditions: Table 23; EGFP mRNA LNP 1.6:54.6:32.8:10.9
Description: The lipid solution contains 4 components: a PEG-conjugated lipid, an ionizable lipid, cholesterol, and a phospholipid (e.g., DSPC). Lipid stocks were prepared using the lipid identities and molar ratios as described, to achieve a total concentration of ˜7 mg/mL in 100% ethanol. […] Equal volumes of the lipid and nucleic acid solutions were blended at a flow rate of 400 mL/min through a T-connector, and diluted with ˜4 volumes of PBS, pH 7.4. Formulations were placed in Slide-A-Lyzer dialysis units (MWCO 10,000) and dialyzed overnight against 10 mM Tris, 500 mM NaCl, pH 8 buffer. Following dialysis, the formulations were concentrated to ˜0.6 mg/mL using VivaSpin concentrator units (MWCO 100,000) and dialyzed overnight against 5 mM Tris, 10% sucrose, pH 8 buffer. Formulations were filtered through a 0.2 μm syringe filter (PES membrane). Nucleic acid concentration was determined by the RiboGreen assay. Particle size and polydispersity were determined using a Malvern Nano Series Zetasizer.
LNP formulations containing novel ionizable lipids all produced stable particles with high encapsulation efficiency (Tables 20-23).

[8] = tested on: EGFP expression in the liver; assay: EGFP expression in liver after intravenous EGFP mRNA LNP (ELISA); conditions: Table 27; 0.5 mg/kg IV, 24 h post-IV administration, BALB/c mice (n = 4)
[9] = Table 18, female BALB/c mice (n = 4)

SMILES	Parent ionizable lipid remaining in liver, Average [3, 9]	Parent ionizable lipid remaining in liver, Average ([4]; 0.25 h post-dose)	Parent ionizable lipid remaining in liver, Average ([4]; 1 h post-dose)	Parent ionizable lipid remaining in liver, Average ([4]; 3 h post-dose)	Parent ionizable lipid remaining in liver, Average ([4]; 6 h post-dose)	Parent ionizable lipid remaining in liver, Average ([4]; 24 h post-dose)	Parent ionizable lipid remaining in liver, Average ([4]; 168 h post-dose)	Human OTC expression ([5]; 0.3 mg/kg IV)	Human OTC expression ([5]; 1 mg/kg IV)	Human OTC expression ([5]; 3 mg/kg IV)	Parent ionizable lipid remaining in liver, Average [6]	Final Product % EE [7]	Final Product PDI [7]	Final Product Z-avg [7]	EGFP [8]	also measured
CCCCCCCCCCN(C(=O)CCCN(C)C)C(CCCCCCCCC)CCCCCCC(F)(F)C(=O)OCCC(CCCCCC)CCCCCC (stereo not shown) [Compound 16, 3-hexylnonyl 9-(N-decyl-4-(dimethylamino)butanamido)-2,2-difluorooctadecanoate]	17.06 nmol/g liver	11.11 nmol/g liver	15.47 nmol/g liver	10.91 nmol/g liver	4.71 nmol/g liver	1.33 nmol/g liver	0.04 nmol/g liver	1155 ng hOTC/mg protein in liver	4127 ng hOTC/mg protein in liver	10316 ng hOTC/mg protein in liver	–	–	–	–	–	Luc Activity ([1]; Table 13): 4.39E+07 pg/g liver; Final Product % EE [2]: 95%; Final Product PDI [2]: 0.10; Final Product Z-avg [2]: 76 nm; Parent ionizable lipid remaining in liver, Average ([3]; Table 17, female mice (n = 4)): 6.32 nmol/g liver
CCCCCCCCCCC(CCCCCCC(=O)OCC(CCCCCC)CCCCCCCC)N(CCCCCCC(F)(F)C(=O)OCC(CCCCCC)CCCCCCCC)C(=O)CCCN(C)C (stereo not shown) [Compound 33]	–	33.97 nmol/g liver	98.57 nmol/g liver	76.20 nmol/g liver	86.57 nmol/g liver	58.68 nmol/g liver	6.22 nmol/g liver	660 ng hOTC/mg protein in liver	2954 ng hOTC/mg protein in liver	11080 ng hOTC/mg protein in liver	–	–	–	–	–	–
CCCCCCCCCCON(C(=O)CCCN(C)C)C(CCCCCCCCCC)CCCCCCC(=O)OCCC(CCCCC)CCCCC (stereo not shown) [Compound 43, 3-pentyloctyl 8-[N-(decyloxy)-4-(dimethylamino)butanamido]octadecanoate]	23.83 nmol/g liver	22.97 nmol/g liver	38.91 nmol/g liver	28.99 nmol/g liver	24.19 nmol/g liver	13.50 nmol/g liver	0.19 nmol/g liver	1247 ng hOTC/mg protein in liver	5713 ng hOTC/mg protein in liver	12887 ng hOTC/mg protein in liver	–	–	–	–	–	Luc Activity ([1]; Table 13): 1.04E+08 pg/g liver; Final Product % EE [2]: 99%; Final Product PDI [2]: 0.05; Final Product Z-avg [2]: 73 nm; Parent ionizable lipid remaining in liver, Average ([3]; Table 17, female mice (n = 4)): 25.97 nmol/g liver
CCCCCCCCCCC(CCCCCCC(=O)OCCC(CCCCC)CCCCC)N(CCCCCCCC(=O)OCCC(CCCCC)CCCCC)C(=O)CCCN(C)C (stereo not shown) [Compound 67]	31.32 nmol/g liver	12.37 nmol/g liver	21.11 nmol/g liver	16.12 nmol/g liver	10.82 nmol/g liver	11.31 nmol/g liver	0.72 nmol/g liver	–	–	–	–	–	–	–	–	Luc Activity ([1]; Table 12): 1.31E+08 pg/g liver
CCCCCCCCCCN(C(=O)CCCN(C)C)C(CCCCCCCCC)CCCCC(F)C(=O)OCC(CCCCCC)CCCCCCCC (stereo not shown) [Compound 120, 2-Hexyldecyl 7-(N-decyl-4-(dimethylamino)butanamido)-2-fluorohexadecanoate]	–	–	–	–	–	–	–	–	–	–	4.8 nmol/g liver	99%	0.15	69 nm	1.90E+07 pg/g liver	–
CCCCCCCCCCN(C(=O)CCCN(C)C)C(CCCCCCCCC)CCCCC(F)C(=O)OC(CCCCCC)CCCCCC (stereo not shown) [Compound 121, Tridecan-7-yl 7-(N-decyl-4-(dimethylamino)butanamido)-2-fluorohexadecanoate]	–	–	–	–	–	–	–	–	–	–	2.1 nmol/g liver	99%	0.10	77 nm	3.81E+07 pg/g liver	–
CCCCCCCCCCN(C(=O)CCCN(C)C)C(CCCCCCCCC)CCCCC(F)C(=O)OC(CCCCCCC)CCCCCCC (stereo not shown) [Compound 122, Pentadecan-8-yl 7-(N-decyl-4-(dimethylamino)butanamido)-2-fluorohexadecanoate]	–	–	–	–	–	–	–	–	–	–	6.3 nmol/g liver	100%	0.13	70 nm	2.35E+07 pg/g liver	–
CCCCCCCCCCN(C(=O)CCCN(C)C)C(CCCCCCCCC)CCCCC(F)C(=O)OC(CCCCCCCC)CCCCCCCC (stereo not shown) [Compound 123, Heptadecan-9-yl 7-(N-decyl-4-(dimethylamino)butanamido)-2-fluorohexadecanoate]	–	–	–	–	–	–	–	–	–	–	10.5 nmol/g liver	99%	0.15	73 nm	3.94E+07 pg/g liver	–
